Reference: patent US12643879B2, “Functionalized heterocyclic compounds as modulators of stimulator of interferon genes (STING)” (RYVU THERAPEUTICS S.A., priority 2019, dated 2026)
Counter-ions that a name gives are not always drawn. Like-named read-outs stand apart in the source and are kept apart here.

Experiments:
[1] = system: interferon regulatory factor (IRF) pathway in THP-1 dual cells; test: THP-1 Dual reporter assay, IRF pathway (luciferase); format: cell-based; conditions: Homo sapiens, THP1-Dual, read-out: THP1 Dual EC50 (μM) IRF
Method: (§1) Compounds of the present invention were tested for their activity using THP-1 dual cells (Invivogen, cat no. thpd-nfis) allowing for simultaneous study of NF-κB pathway and the interferon regulatory factor (IRF) pathway. THP-1 dual cells contain luciferase reporter gene under the control of an ISG54 (interferon-stimulated gene) minimal promoter in conjunction with five interferon-stimulated response elements and a secreted embryonic alkaline phosphatase reporter gene under the control an IFN (interferon)-β minimal promoter fused to five copies of the NF-κB consensus transcriptional response element with three copies of the c-Rel binding site. Following 18 h of stimulation with STING agonist, medium was collected and transferred onto fresh cell culture plate. To verify activity of the IRF pathway, luminescence activity was measured with standard laboratory plate reader immediately after addition 10 μl of the medium to 40 or 50 μl of luminescence reagent (Invivogen, cat. No. rep-qlc2). To verify activity of NF-κB pathway, 10 or 20 μl of the medium was mixed with 80 μl of a detection medium (Invivogen, cat. No. rep-qb2) and incubated for 1 or 2 hours at 37° C. in a humidified atmosphere containing 5% CO2. Next, absorbance at 630 or 655 nm was recorded using standard laboratory plate reader.

[2] = system: NF-κB pathway in THP-1 dual cells; test: THP-1 Dual reporter assay, NF-κB pathway (SEAP); format: cell-based; conditions: Homo sapiens, THP1-Dual, read-out: THP1 Dual EC50 (μM) NFkB
Method: as §1

[3] = 18 h stimulation, absorbance at 630 or 655 nm

| EC50 ([1]; 18 h stimulation, luminescence) | EC50 [2, 3] | Compound | EC50 ([1]; 18 h) | EC50 ([2]; 18 h) |
| --- | --- | --- | --- | --- |
| 1 to 10 µM | 1 to 10 µM | Cc1ccc(N2CCC[C@H](N(Cc3ccnc(C)c3)Cc3cn(C4CC4)c4cc(OCCN(C)C(=O)CCOCCOCCOCCOCCOCCOCCOCCC(=O)O)c(F)cc4c3=O)C2)cn1 [Example 11E, 1-[(2-{[1-cyclopropyl-6-fluoro-3-({[(3S)-1-(6-methylpyridin-3-yl)piperidin-3-yl][(2-methylpyridin-4-yl)methyl]amino}methyl)-4-oxo-1,4-dihydroquinolin-7-yl]oxy}ethyl)(methyl)carbamoyl]-3,6,9,12,15,18,21-heptaoxatetracosan-24-oic acid] | – | – |
| < 1 µM | < 1 µM | C#CCOCCOCCOCCOCCOCCC(=O)OCCOc1cc2c(cc1F)c(=O)c(CN(Cc1ccnc(C)c1)[C@H]1CCCN(c3ccc(C)nc3)C1)cn2C1CC1 [Example 47A, 2-{[1-cyclopropyl-6-fluoro-3-({[(3S)-1-(6-methylpyridin-3-yl)piperidin-3-yl][(2-methylpyridin-4-yl)methyl]amino}methyl)-4-oxo-1,4-dihydroquinolin-7-yl]oxy}ethyl 4,7,10,13,16-pentaoxanonadec-18-ynoate] | – | – |
| 1 to 10 µM | > 10 µM | Cc1ccc(N2CCC[C@H](N(Cc3ccnc(C)c3)Cc3cn(C4CC4)c4cc(N5CC[C@@H](NC(=O)OCc6ccc(NC(=O)[C@H](CCCNC(N)=O)NC(=O)[C@@H](NC(=O)CCOCCOCCOCCN=[N+]=[N-])C(C)C)cc6)C5)c(F)cc4c3=O)C2)cn1 [Example 12A, {4-[(2S)-2-[(2S)-2-(3-{2-[2-(2-azidoethoxy)ethoxy]ethoxy}propanamido)-3-methyl-butanamido]-5-(carbamoylamino)pentanamido]phenyl}methyl N-[(3R)-1-[1-cyclopropyl-6-fluoro-3-({[(3S)-1-(6-methylpyridin-3-yl)piperidin-3-yl][(2-methylpyridin-4-yl)methyl]amino}methyl)-4-oxo-1,4-dihydroquinolin-7-yl]pyrrolidin-3-yl]carbamate] | – | – |

More lines, now with the values behind:

| Compound | EC50 ([1]; 18 h stimulation, luminescence) | EC50 [2, 3] | EC50 ([1]; 18 h) | EC50 ([2]; 18 h) |
| --- | --- | --- | --- | --- |
| COc1cc(CN(Cc2cn(C3CC3)c3cc(N4CC[C@@H](O)C4)c(F)cc3c2=O)[C@H]2CCCN(c3cccnc3)C2)ccn1 [Example 65, 1-cyclopropyl-6-fluoro-7-[(3R)-3-hydroxypyrrolidin-1-yl]-3-({[(2-methoxypyridin-4-yl)methyl][(3S)-1-(pyridin-3-yl)piperidin-3-yl]amino}methyl)-1,4-dihydroquinolin-4-one hydrochloride] | – | – | < 1 µM | < 1 µM |
| Cc1cc(CN(Cc2cn(C)c3ccccc3c2=O)[C@H]2CCCN(c3ccc(CO)nc3)C2)ccn1 [Example 40, 3-({[(3S)-1-[6-(hydroxymethyl)pyridin-3-yl]piperidin-3-yl][(2-methylpyridin-4-yl)methyl]amino}methyl)-1-methyl-1,4-dihydroquinolin-4-one] | 1 to 10 µM | 1 to 10 µM | – | – |
| Cc1cc(CN(Cc2cn(C)c3ccccc3c2=O)[C@H]2CCCN(c3cncc(CO)c3)C2)ccn1 [Example 44] | – | – | > 10 µM | > 10 µM |
| Cc1ccc(N2CCC[C@H](N(Cc3ccnc(C)c3)Cc3cn(C4CC4)c4cc(N5CCOC(CO)C5)c(F)cc4c3=O)C2)cn1 (stereo partly drawn) [Example 71, 1-cyclopropyl-6-fluoro-7-[2-(hydroxymethyl)morpholin-4-yl]-3-({[(3S)-1-(6-methylpyridin-3-yl)piperidin-3-yl][(2-methylpyridin-4-yl)methyl]amino}methyl)-1,4-dihydroquinolin-4-one] | < 1 µM | < 1 µM | – | – |
| Cc1ccc(N2CCC[C@H](N(Cc3ccnc(C)c3)Cc3cn(C4CC4)c4cc(N5CCN(CCO)CC5)c(F)cc4c3=O)C2)cn1 [Example 70, 1-cyclopropyl-6-fluoro-7-[4-(2-hydroxyethyl)piperazin-1-yl]-3-({[(3S)-1-(6-methylpyridin-3-yl)piperidin-3-yl][(2-methylpyridin-4-yl)methyl]amino}methyl)-1,4-dihydroquinolin-4-one] | < 1 µM | < 1 µM | – | – |
